Results on one compound are retold here after article PMC5840262, “Design, Synthesis and Evaluation of Branched RRWQWR-Based Peptides as Antibacterial Agents Against Clinically Relevant Gram-Positive and Gram-Negative Pathogens” (Frontiers in Microbiology, 2018).

In data set [1] the test system is Enterococcus faecalis ATCC 51575 (resistant). In kind it is cell-based. The method, then: (§1) We screened all five peptides against the ATCC reference strains and the clinical isolates according to Method M7-A7 of the National Committee for Clinical Laboratory Standards (CLSI, [2007]). The MIC50 and MBC values were determined using a broth microdilution and growth inhibition method previously reported by Leon-Calvijo et al. ([2015]), with some modifications (Wiegand et al., [2008]). Briefly, the MIC50 experiments comprised a liquid-inhibition growth assay in a sterile, untreated, 96-well flat-bottom tissue culture plate. The bacteria were cultured overnight n Mueller Hinton agar; three colonies were transferred to 8 mL of Mueller Hilton broth and incubated at 37°C until the mid-exponential phase of growth. The turbidity of the cultures was measured and adjusted spectrophotometrically to a McFarland standard of 0.5, and then diluted to a final concentration of 5 × 10^7 colony forming units (CFU) per well. Stock solutions (2,000 μM) of each test peptide were serially diluted to final concentrations (per well) of 200, 100, 50, 25, 12.5, and 6.25 μM. Each concentration was evaluated in duplicate and each assay was performed in triplicate.
(§2) Wells containing Mueller Hilton broth with bacterial inoculum only served as bacterial-growth controls. Additional controls included Mueller Hilton broth alone (as blank) and Mueller Hilton broth with ciprofloxacin (2 μg/mL; as positive control). The microplate was incubated for 24 h at 37°C, and growth inhibition was measured by monitoring the optical density at 620 nm (OD620). The MIC50 was defined as the peptide concentration at which bacterial growth was inhibited by 50%.
(§3) To determine the MBC, an aliquot from each well of the MIC50 assay was spread onto Mueller Hilton agar. After 18 h at 37°C, the concentration that inhibited bacterial growth was determined. Each of these tests was performed four times. MBC was defined as the lowest concentration of peptide at which the number of bacteria was reduced by 99.9% in vitro (European Committee for Antimicrobial Susceptibility Testing, [2000]).

The test system of data set [2] is Enterococcus faecalis ATCC 29212 (sensitive). The format is cell-based. The following applies: ATCC 29212, 18 h. The method, then: as §1, §2, §3
The subject of data set [3] is Pseudomonas aeruginosa ATCC 10145 (sensitive). The format is cell-based. The method, then: as §1, §2, §3
Data set [4] relates to Pseudomonas aeruginosa ATCC 27853 (resistant). The format is cell-based. The method, then:
as §1, §2, §3

A further data set has as its system human erythrocytes. The data set is described as follows: Hemolytic activity. The following applies: red cells of human, 2 h. In kind it is cell-based. The method, then: Human erythrocytes collected from the blood samples of healthy humans were harvested by centrifugation for 7 min at 162 × g and washed three times in phosphate-buffered saline (PBS). The erythrocytes (2% hematocrit in PBS) were incubated with peptide molecules at several concentrations (6.25, 12.5, 25, 50, and 100 μM) for 2 h at 37°C. PBS was used as negative control for hemolysis, and sterile distilled water was used as positive control (100% hemolysis). The plate was subsequently centrifuged at 1,459 × g for 10 min at 4°C. Aliquots of the supernatant from each well (75 μL) were carefully transferred to a new sterile 96-well plate, and hemolytic activity was evaluated by measuring the OD492 using an Asys Expert Plus Microplate reader. The experiments were performed in duplicate, and hemolytic activity was calculated for each peptide.

Data set [5] concerns Gram-negative ATCC strains (K. pneumoniae 13883 and 700603, P. aeruginosa 10145 and 27853). From the text: We determined the therapeutic index of each peptide, which we defined as the ratio of Maximum Hemolytic Activity (Hmax) to MIC50 (Hmax/MIC50).
The therapeutic index (TI) is a ratio of the toxic dose of a substance to its therapeutically-active dose and can be calculated different ways (e.g., LD50/ED50). Here, we calculated a TI value for each peptide against all the Gram-positive or the Gram-negative ATCC strains, by dividing its Hmax by its MIC50 for the given group of strains. […] Additionally, to make our quantitative analysis more robust [geometric mean (Khachatryan et al., [2017]) and fold values], we have included MIC50 values for these peptides against S. aureus and K. pneumoniae that we previously obtained using the same assay, the M7-A7 method of the National Committee for Clinical Laboratory Standards (Leon-Calvijo et al., [2015]).

Structures are written as SMILES. ≈ marks a conversion by molar mass, not a printed value.

Turning to `CSCC[C@H](NC(=O)[C@H](CCCNC(=N)N)NC(=O)[C@H](Cc1c[nH]c2ccccc12)NC(=O)[C@H](CCC(N)=O)NC(=O)[C@H](Cc1c[nH]c2ccccc12)NC(=O)[C@H](CCCNC(=N)N)NC(=O)[C@H](CCCNC(=N)N)NC(=O)[C@H](CS)NC(=O)[C@H](CCCCN)NC(=O)[C@@H](N)Cc1ccccc1)C(=O)N[C@@H](CCCCN)C(=O)N[C@@H](CCCCN)C(=O)N[C@@H](CC(C)C)C(=O)NCC(=O)N[C@@H](C)C(N)=O` [LfcinB (17–31), reference compound], the minimal bactericidal concentration (MBC) in data set [1] (ATCC 51575, 18 h) was >200.0 µM; in data set [2], >200.0 µM; in data set [3] (ATCC 10145, 18 h) it was >200.0 µM; in data set [4] (ATCC 27853, 18 h) it was >200.0 µM. Further, the MIC50 in data set [1] (ATCC 51575, 24 h) is >200.0 µM; in data set [3] (ATCC 10145, 24 h), 111.7 µM (≈ 223 µg/mL); in data set [4] (ATCC 27853, 24 h), 99.6 µM (≈ 199 µg/mL). Also, the “H50, concentration of peptide leading to 50% hemolysis” value in the data set with human erythrocytes is >100 µM. For the same compound, in data set [5], the “Gm, geometric mean of MIC50 values” is 105.5.

As usually defined, the MBC is the smallest concentration meeting the test's criterion for killing. Low readings indicate more potent killing, high ones less potent killing. As usually defined, the MIC50 is an inhibitory concentration at the 50% level, which refers to growth in some studies and to a panel of isolates in others. A higher MIC50 goes with lower susceptibility.
